Experimental data as given in patent US5262423A, “Rapamycin arylcarbonyl and alkoxycarbonyl carbamates as immunosuppressive and antifungal agents” (American Home Products Corporation, priority 1992, dated 1993).
≈ marks a conversion by molar mass, not a printed value. Where two headings read alike, the source gives them in different places.

What was measured:
[1] = tested on: fungi; settings: cited from earlier work
[2] = tested on: thymocyte proliferation (lymphocyte proliferation, LAF); assay: comitogen-induced thymocyte proliferation procedure (LAF); format: cell-based, normal BALB/c mice; settings: Mus musculus, 72 h, mouse thymocytes, 72 hours with PHA and IL-1, test compound (Analogs)
Experimental: (§1) Immunosuppressive activity was evaluated in an in vitro standard pharmacological test procedure to measure lymphocyte proliferation (LAF) and in an in vivo procedure to evaluate the survival time of a pinch skin graft. Antifungal activity was determined against five strains of Candida albicans.
(§2) Immunosuppressive activity was evaluated in an in vitro standard pharmacological test procedure to measure lymphocyte proliferation (LAF) and in one in vivo standard pharmacological test procedure to evaluate the survival time of a pinch skin graft.
The comitogen-induced thymocyte proliferation procedure (LAF) was used as an in vitro measure of the immunosuppressive effects of representative compounds. Briefly, cells from the thymus of normal BALB/c mice were cultured for 72 hours with PHA and IL-1 and pulsed with tritiated thymidine during the last six hours. Cell are cultured with and without various concentrations of rapamycin, cyclosporin A, or test compound. Cells are harvested and incorporated; radiactivity is determined. Inhibition of lymphoproliferation is assessed in percent change in counts per minute from non-drug treated controls. The results are expressed by the following ratio: [formula] or as percent inhibition or IC50.

[3] = tested on: Candida albicans ATCC 38248; assay: plate test procedure for anti-Candida activity, strain ATCC 38248; format: cell-based
Experimental: as §1
(§3) Antifungal activity of the compounds of this invention is measured against 5 strains of Candida albicans using a plate test procedure for measurement of inhibition. The following represents the typical procedure used. The compound to be tested is placed on sterile dried 1/4" plate disks, and allowed to dry. Agar plates are seeded with fungi and allowed to solidify. The impregnated disks are placed on the seeded Agar surface and incubated for the time required for the particular culture. Results shown in Table II are expressed in Minimum Inhibitory Concentration (MIC) (μg/ml) to inhibit growth.

[4] = tested on: Candida albicans ATCC 10231; assay: plate test procedure for anti-Candida activity, strain ATCC 10231; format: cell-based
Experimental: as §1, §3

[5] = tested on: pinch skin graft (allograft); assay: in vivo pinch skin graft survival (Skin Graft Model); set-up: species or system mice: male BALB/c donors, male C3 H recipients; settings: intraperitoneally once daily for 6 consecutive days; mean ± S.D.; dose not given
Experimental: as §1, §2
The in vivo test procedure is designed to determine the survival time of pinch skin graft from male BALB/c donors transplanted to male C3 H recipients. The method is adapted from Billingham R. E. and Medawar P. B., J. Exp. Biol. 28:385-402, (1951). Briefly, a pinch skin graft from the donor is grafted on the dorsum of the recipient as a allograft, and an isograft is used as control in the same region. The recipients are treated with the test compound, intraperitoneally once daily for 6 consecutive days. Untreated recipients serve as rejection control. The graft is monitored daily and observations are recorded until the graft becomes 95% area necrosis or the suture line is off. This is considered as the rejection day. The graft survival time is one day before the rejection day. The mean graft survival time (number of days ±S.D.) of the drug treatment group is compared with the control group.

[6] = tested on: Candida albicans 3669; assay: plate test procedure for anti-Candida activity, strain 3669; format: cell-based
Experimental: as §1, §3

[7] = tested on: Candida albicans ATCC 38247; assay: plate test procedure for anti-Candida activity, strain ATCC 38247; format: cell-based
Experimental: as §1, §3

[8] = tested on: Candida albicans ATCC 38246; assay: plate test procedure for anti-Candida activity, strain ATCC 38246; format: cell-based
Experimental: as §1, §3

[9] = tested on: transplant rejection; settings: cited from earlier work
[10] = tested on: Candida albicans; settings: in vitro and in vivo; cited from earlier work
[11] = tested on: adjuvant arthritis model, a model for rheumatoid arthritis; settings: in vivo; cited from earlier work
[12] = tested on: experimental allergic encephalomyelitis model, a model for multiple sclerosis; settings: in vivo; cited from earlier work
[13] = tested on: tumor; settings: alone or in combination with picibanil; cited from earlier work
[14] = tested on: formation of IgE-like antibodies; settings: in vivo; cited from earlier work
[15] = ATCC38248, Candida albicans ATCC 38248, plate test, read-out: Minimal Inhibitory Concentration (MIC), ATCC 38248
[16] = ATCC10231, Candida albicans ATCC 10231, plate test, read-out: Minimal Inhibitory Concentration (MIC), ATCC 10231
[17] = Candida albicans 3669, plate test, read-out: Minimal Inhibitory Concentration (MIC), 3669
[18] = ATCC38247, Candida albicans ATCC 38247, plate test, read-out: Minimal Inhibitory Concentration (MIC), ATCC 38247
[19] = ATCC38246, Candida albicans ATCC 38246, plate test, read-out: Minimal Inhibitory Concentration (MIC), ATCC 38246

Compound | IC50 [2] | MIC [3, 15] | MIC [4, 16] | Skin Graft Model (Survival time days) [5] | MIC [6, 17] | MIC [7, 18] | MIC [8, 19] | inhibition of transplant rejection / immunosuppressive effect [9] | further results
33-desmethylrapamycin |  |  |  |  |  |  |  |  | antifungal and immunosuppressant activities [1]: antifungal and immunosuppressant activities
CO[C@H]1C[C@@H]2CC[C@@H](C)[C@@](O)(O2)C(=O)C(=O)N2CCCC[C@H]2C(=O)O[C@H]([C@H](C)C[C@@H]2CC[C@@H](OC(=O)NC(=O)c3ccccc3)[C@H](OC)C2)CC(=O)[C@H](C)/C=C(\C)[C@@H](O)[C@@H](OC)C(=O)[C@H](C)C[C@H](C)/C=C/C=C/C=C/1C [Example 1, Rapamycin 42-ester with benzoylcarbamic acid] | 1.4 nM | 0.1 µg/mL (≈ 0.0942 µM) | 0.05 µg/mL (≈ 0.0471 µM) | 10.5 ± 0.55 days | 0.1 µg/mL (≈ 0.0942 µM) | 0.05 µg/mL (≈ 0.0471 µM) | 0.1 µg/mL (≈ 0.0942 µM) |  | 
CO[C@H]1C[C@@H]2CC[C@@H](C)[C@@](O)(O2)C(=O)C(=O)N2CCCC[C@H]2C(=O)O[C@H]([C@H](C)C[C@@H]2CC[C@@H](OC(=O)NC(=O)c3ccccc3)[C@H](OC)C2)CC(=O)[C@H](C)/C=C(\C)[C@@H](OC(=O)CN(C)C)[C@@H](OC)C(=O)[C@H](C)C[C@H](C)/C=C/C=C/C=C/1C [Example 2, Rapamycin 31-ester with N,N-dimethylglycine, 42-ester with benzoylcarbamic acid] | 4.8 nM | 0.4 µg/mL (≈ 0.349 µM) | 0.1 µg/mL (≈ 0.0872 µM) | 10.4 ± 0.55 days | 0.4 µg/mL (≈ 0.349 µM) | 0.1 µg/mL (≈ 0.0872 µM) | 0.4 µg/mL (≈ 0.349 µM) |  | 
CO[C@H]1C[C@@H]2CC[C@@H](C)[C@@](O)(O2)C(=O)C(=O)N2CCCC[C@H]2C(=O)O[C@H]([C@H](C)C[C@@H]2CC[C@@H](OC(=O)NC(=O)c3ccccc3)[C@H](OC)C2)CC(=O)[C@H](C)/C=C(\C)[C@@H](OC(=O)NC(=O)c2ccccc2)[C@@H](OC)C(=O)[C@H](C)C[C@H](C)/C=C/C=C/C=C/1C [Example 3, Rapamycin 31,42 diester with benzoylcarbamic acid] | 1.2 nM |  |  |  |  |  |  |  | 
COC(=O)NC(=O)O[C@@H]1CC[C@@H](C[C@@H](C)[C@@H]2CC(=O)[C@H](C)/C=C(\C)[C@@H](O)[C@@H](OC)C(=O)[C@H](C)C[C@H](C)/C=C/C=C/C=C(\C)[C@@H](OC)C[C@@H]3CC[C@@H](C)[C@@](O)(O3)C(=O)C(=O)N3CCCC[C@H]3C(=O)O2)C[C@H]1OC [Example 4, Rapamycin 42-ester with N-methoxycarbonylcarbamic acid] | 2.7 nM | 0.1 µg/mL (≈ 0.0985 µM) | 0.05 µg/mL (≈ 0.0492 µM) | 10.33 ± 0.52 days | 0.2 µg/mL (≈ 0.197 µM) | 0.05 µg/mL (≈ 0.0492 µM) | 0.2 µg/mL (≈ 0.197 µM) |  | 
C=CC[C@@H]1/C=C(\C)C[C@H](C)C[C@H](OC)[C@H]2O[C@@](O)(C(=O)C(=O)N3CCCC[C@H]3C(=O)O[C@H](/C(C)=C/[C@@H]3CC[C@@H](O)[C@H](OC)C3)[C@H](C)[C@@H](O)CC1=O)[C@H](C)C[C@@H]2OC [FK-506] |  |  |  |  |  |  |  | effective as immunosuppressive agents | 
CO[C@H]1C[C@@H]2CC[C@@H](C)[C@@](O)(O2)C(=O)C(=O)N2CCCC[C@H]2C(=O)O[C@H]([C@H](C)C[C@@H]2CC[C@@H](O)[C@H](OC)C2)CC(=O)[C@H](C)/C=C(\C)[C@@H](O)[C@@H](OC)C(=O)[C@H](C)C[C@H](C)/C=C/C=C/C=C/1C [Rapamycin] |  |  |  | > 12.0 days |  |  |  | effective in inhibiting transplant rejection | MIC ([3]; Candida albicans, ATCC38248, read-out: Minimal Inhibitory Concentration (MIC), ATCC 38248): 0.006 µg/mL (≈ 0.00656 µM); antifungal activity [10]: antifungal activity, particularly against Candida albicans, both in vitro and in vivo; effect in adjuvant arthritis model [11]: effective; effect in experimental allergic encephalomyelitis model [12]: effective; antitumor activity [13]: shown to have antitumor activity; MIC ([4]; Candida albicans, ATCC10231, read-out: Minimal Inhibitory Concentration (MIC), ATCC 10231): 0.003 µg/mL (≈ 0.00328 µM); MIC ([6]; Candida albicans, 3669, read-out: Minimal Inhibitory Concentration (MIC), 3669): 0.025 µg/mL (≈ 0.0273 µM); inhibition of formation of IgE-like antibodies [14]: effectively inhibited the formation of IgE-like antibodies; MIC ([7]; Candida albicans, ATCC38247, read-out: Minimal Inhibitory Concentration (MIC), ATCC 38247): 0.003 µg/mL (≈ 0.00328 µM); MIC ([8]; Candida albicans, ATCC38246, read-out: Minimal Inhibitory Concentration (MIC), ATCC 38246): 0.025 µg/mL (≈ 0.0273 µM)
Cyclosporin A |  |  |  |  |  |  |  | effective as immunosuppressive agents | 
